In PubChem BioAssay AID1205 (EPA DSSTox, 2008):
Calls of active or inactive are those of the source.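 How the source made its calls: active means tumour findings in long-term animal cancer tests in more than one sex, species or organ; inactive means no tumour finding and more than one negative test.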

Test: DSSTox (CPDBAS) Carcinogenic Potency Database Summary MultiCellCall Results
Details: animal carcinogenicity bioassays, multi-cell call summary
From the text: The Carcinogenic Potency Database (CPDB) is a unique and widely used international resource of the results of over 6500 chronic, long-term animal cancer tests on over 1500 chemical substances. The CPDB provides easy access to the bioassay literature, with qualitative and quantitative analyses of both positive and negative experiments that have been published over the past 50 years in the general literature and by the National Cancer Institute/National Toxicology Program. The CPDB standardizes the diverse literature of cancer bioassays that vary widely in protocol, histopathological examination and nomenclature, and in the published author's choices of what information to provide in their papers. Results are reported in the CPDB for tests in rats, mice, hamsters, dogs, and nonhuman primates, and are based on the most positive result among all experiments for each sex-species. The DSSTox CPDBAS (all species) file incorporates data from the CPDB Summary Tables for the full list of over 1500 chemical substances tested in at least one species. A summary MultiCellCall, based on experimental bioassay results of one or more species, is provided in the DSSTox CPDBAS file (see Source URL) for more than 1150 chemical substances.
Associated TD50 values and tumor site details for the relevant species/sex experiment supporting the overall CPDBAS MultiSiteCall are provided in the full DSSTox CPDBAS file (see Comment) and the corresponding CPDBAS Species Bioassay in PubChem. ActivityScore is computed as follows: multispecies=50, multisex=30, multisite=20, with combination scores computed as sums of these values, e.g. multispecies+multisite=70.
For `Nc1cc(S(=O)(=O)O)cc2cc(S(=O)(=O)O)c(N=Nc3ccc(-c4ccc(N=Nc5c(S(=O)(=O)O)cc6cc(S(=O)(=O)O)cc(N)c6c5O)cc4)cc3)c(O)c12`, the outcome was “active; multisex active”.
In the case of `Nc1cc([N+](=O)[O-])ccc1C(=O)O`, the outcome is reported as “inactive; multisex inactive; multispecies inactive”.
With `ClC1=C(Cl)C2(Cl)C3C(Cl)OC(Cl)C3C1(Cl)C2(Cl)Cl` (configuration not stated) the outcome was “inactive; multisex inactive”.
With `COC(=O)C1=CCCN(C)C1` the outcome was “active; multisite active; multisex active”.
With `O=NN1CCCCC1C(=O)O` (configuration not stated) the outcome was “inactive; multisex inactive”.
With `Nc1ccc2nc3ccccn3c2n1` the outcome was “active; multisite active; multisex active; multispecies active”.
In the case of `Cc1cc(O)cc(C)c1N(C)C`, the outcome is reported as “inactive; multisex inactive”.
With `ClCc1ccccc1` the outcome was “active; multisex active”.
With `CC1CN(N=O)C(=O)NC1=O` (configuration not stated) the outcome was “inactive; multisex inactive”.
In the case of `CC1CC(C)(C)CC(OOC(C)(C)C)(OOC(C)(C)C)C1` (configuration not stated), the outcome is reported as “inactive; multisex inactive”.
With `CC(O)CN(C)N=O` (configuration not stated) the outcome was “active; multisite active; multisex active”.
With `NC(=O)/C(=C\c1ccc([N+](=O)[O-])o1)c1ccco1` the outcome was “active; multisite active; multisex active; multispecies active”.
With `c1ccc2ccccc2c1` the outcome was “active; multisite active; multisex active; multispecies active”.
With `C=CCN(N)CC=C` the outcome was “active; multisite active; multisex active”.
In the case of `COc1ccccc1[N+](=O)[O-]`, the outcome is reported as “active; multisite active; multisex active; multispecies active”.
With `COC(=O)C1=C(C)NC(C)=C(C(=O)OCCc2ccc(N3CCN(C(c4ccccc4)c4ccccc4)CC3)cc2)C1c1cccc([N+](=O)[O-])c1` (configuration not stated) the outcome was “inactive; multisex inactive; multispecies inactive”.
In the case of `CC[C@H]1OC(=O)[C@H](C)[C@@H](O[C@H]2C[C@@](C)(OC)[C@@H](O)[C@H](C)O2)[C@H](C)[C@@H](O[C@@H]2O[C@H](C)C[C@H](N(C)C)[C@H]2O)[C@](C)(O)C[C@@H](C)C(=O)[C@H](C)[C@@H](O)[C@]1(C)O`, the outcome is reported as “inactive; multisex inactive; multispecies inactive”.
In the case of `C[C@@H]1Cc2c(Cl)cc(C(=O)N[C@@H](Cc3ccccc3)C(=O)O)c(O)c2C(=O)O1`, the outcome is reported as “active; multisite active; multisex active; multispecies active”.
For `Nc1ccc(N)c2c1C(=O)c1c(N)ccc(N)c1C2=O`, the outcome was “active; multisex active”.
For `CC(O)CN(CC(C)O)N=O` (configuration not stated), the outcome was “active; multisite active; multisex active”.
In the case of `O=NN1CCCCC1c1cccnc1` (configuration not stated), the outcome is reported as “active; multisex active”.
In the case of `COc1ccc(C)cc1N`, the outcome is reported as “active; multisite active; multisex active; multispecies active”.
For `CCOC(=O)[C@]1(c2ccccc2)CCC=C[C@H]1N(C)C`, the outcome was “inactive; multisex inactive; multispecies inactive”.
In the case of `C=O`, the outcome is reported as “active; multisite active; multisex active; multispecies active”.
In the case of `CC(=O)Nc1ccc2c(c1)Cc1ccccc1-2`, the outcome is reported as “active; multisite active; multisex active; multispecies active”.
In the case of `Clc1ccc(-c2ccc(Cl)c(Cl)c2Cl)c(Cl)c1Cl`, the outcome is reported as “active; multisite active; multisex active”.
With `NNC(N)=O` the outcome was “active; multisite active; multisex active”.
In the case of `C1CCC(C(CC2CCCCN2)C2CCCCC2)CC1` (configuration not stated), the outcome is reported as “inactive; multisex inactive”.
In the case of `Cc1cnc2ccc3c(nc(N)n3C)c2n1`, the outcome is reported as “active; multisite active; multisex active; multispecies active”.
With `O=[N+]([O-])c1ccc(Cl)c([N+](=O)[O-])c1` the outcome was “inactive; multisex inactive; multispecies inactive”.
For `CN(C)c1ccc(N=NS(=O)(=O)O)cc1`, the outcome was “inactive; multisex inactive; multispecies inactive”.
With `[K+]` the outcome was “active; multisex active”.
With `CCO` the outcome was “active; multisite active”.
In the case of `CC(CN1CC(=O)NC(=O)C1)N1CC(=O)NC(=O)C1` (configuration not stated), the outcome is reported as “active; multisite active; multispecies active”.
In the case of `CN(C)/N=N/c1nc[nH]c1C(N)=O`, the outcome is reported as “active; multisite active; multisex active; multispecies active”.
With `CC=O` the outcome was “active; multisite active; multisex active; multispecies active”.
For `ClCOCCl`, the outcome was “active; multisite active; multisex active; multispecies active”.
With `C1CCNCC1` the outcome was “inactive; multisex inactive”.
In the case of `C/C=C/C=C/C(=O)O`, the outcome is reported as “inactive; multisex inactive; multispecies inactive”.
In the case of `Cc1ccc(N)cc1N`, the outcome is reported as “active; multisite active; multisex active; multispecies active”.
In the case of `NCCS(=O)(=O)O`, the outcome is reported as “inactive; multisex inactive”.
For `CN(N=O)c1ncnc2c1ncn2[C@@H]1O[C@H](CO)[C@@H](O)[C@H]1O`, the outcome was “active; multisite active; multisex active”.
